# Literature values as cited in US10729636B2, “Compositions comprising peptide [sequence]” (NURITAS LIMITED, priority 2016, dated 2020).
# Where two headings read alike, the source gives them in different places.
# How the values were obtained:
# [1] = cited from earlier work
# lipoproteins = details: binding to lipoproteins; cited from earlier work
# [2] = humans who took more vitamin E on a regular basis vs those who took less; study on nurses; cited from earlier work
Molecule,half-life ([1]; in words),half-life ([1]; in humans),other results
CCNC(=O)[C@@H]1CCCN1C(=O)[C@H](CCCNC(=N)N)NC(=O)[C@H](CC(C)C)NC(=O)[C@@H](COC(C)(C)C)NC(=O)[C@H](Cc1ccc(O)cc1)NC(=O)[C@H](CO)NC(=O)[C@H](Cc1c[nH]c2ccccc12)NC(=O)[C@H](Cc1cnc[nH]1)NC(=O)[C@@H]1CCC(=O)N1 [buserelin],much longer,,
C[C@@H](O)[C@@H]1NC(=O)[C@H](CCCCN)NC(=O)[C@@H](Cc2c[nH]c3ccccc23)NC(=O)[C@H](Cc2ccccc2)NC(=O)[C@@H](NC(=O)[C@H](N)Cc2ccccc2)CSSC[C@@H](C(=O)N[C@H](CO)[C@@H](C)O)NC1=O [octreotide],,about 100 min,fraction unbound (lipoproteins): 0.65
NC(=O)CC[C@@H]1NC(=O)[C@H](Cc2ccccc2)NC(=O)[C@H](Cc2ccc(O)cc2)NC(=O)[C@@H](N)CSSC[C@@H](C(=O)N2CCC[C@H]2C(=O)N[C@@H](CCCN=C(N)N)C(=O)NCC(N)=O)NC(=O)[C@H](CC(N)=O)NC1=O [vasopressin],,10 to 35 min,
gonadotropin-releasing hormone,very short,,
vitamin E,,,lower incidence of heart disease [2]: 41%
